Measurements reported in US20260014118A1, “VITAMINS FOR USE IN IMPROVING GUT HEALTH” (DSM IP ASSETS B.V., priority 2022, published 2026).

Tested on: Bifidobacterium animalis ssp. lactis DSM 32269
Assay: Short-term batch-fermentation (colonic incubation, M-SHIME colon model) with fecal inocula of six human donors; qPCR on groEL gene
Format: cell-based
Settings: 48 h colonic incubation; for levels of Bifidobacterium animalis ssp. lactis (DSM 32269 specific groEL gene copies) in the lumen environment, as compared to the respective control: average of six donors, co-supplemented with probiotic 1*10^9 CFU, vitamin B2 0.01667 g/L, vitamin C 0.333 g/L, vitamin D3 0.000025 g/L
Description: A short-term batch-fermentation experiment was carried out by ProDigest, consisting of a colonic incubation of a representative dose of a selected vitamin with a representative bacterial inoculum under simulated conditions for the proximal large intestine. In the current experiment, the bacterial inocula were derived from fresh fecal samples of six different healthy adult donors. Incubations were performed as described previously (Van den Abbeele, P.; Taminiau, B.; Pinheiro, I.; Duysburgh, C.; Jacobs, H.; Pijls, L.; Marzorati, M. Arabinoxylo-Oligosaccharides and Inulin Impact Inter-Individual Variation on Microbial Metabolism and Composition, Which Immunomodulates Human Cells. J. Agric. Food Chem. 2018, 66, 1121-1130). At the start of the short-term colonic incubation, fresh fecal material from six healthy human donors was collected and upon preparation of an anaerobic fecal slurry, this slurry was inoculated at 10 vol % in a SHIME nutritional medium containing basal nutrients containing 3.5 g/L K2HPO4, 10.9 g/L KH2PO4, 2 g/L NaHCO3(Chem-lab NV, Zedelgem, Belgium), 2 g/L yeast extract, 2 g/L peptone (Oxoid, Aalst, Belgium), 1 g/L mucin (Carl Roth, Karlsruhe, Germany), 0.5 g/L L-cysteine and 2 mL/L Tween80 (Sigma-Aldrich, Bornem, Belgium). All test ingredients (i.e., probiotic strain, vitamin B2, C, or D3) were also added to the SHIME medium. Furthermore, M-SHIME® technology was incorporated in the current experiment by adding mucin-covered microcosms (modeling the mucus of the colon) to the incubations as described previously (Van den Abbeele, P., et al. (2013). Butyrate-producing Clostridium cluster XIVa species specifically colonize mucins in an in vitro gut model. The ISME Journal 7 (5), 949-961). Incubations were performed for 48 h, at 37° C., under shaking (90 rpm) and anaerobic conditions.
In this study, the Bifidobacterium animalis ssp. lactis BB-12 equivalent Bifidobacterium animalis ssp. lactis DSM 32269 (Biocare Copenhagen) was added to the colon model containing the donor samples, alone or in combination with vitamin B2, C, or D (see Table 1). After 48 h of incubation, the abundance of the added strain was analyzed using primers that are specific for Bifidobacterium animalis ssp. lactis BB-12/Bifidobacterium animalis ssp. lactis DSM 32269. Experiments were performed in single repetition.
The Bifidobacterium animalis ssp. lactis BB-12 equivalent strain Bifidobacterium animalis ssp. lactis DSM 32269 was added to the SHIME medium as an overnight grown culture at a concentration of 1*10^9 CFU. The probiotic strain was either supplemented alone or in combination with vitamin B2, vitamin C or vitamin D3 (DSM). Vitamin B2, C, and D3 was added at a concentration of 0.01667 g/L, 0.333 g/L and 0.000025 g/L, respectively, which translates into a 10 mg, 200 mg, and […] dose, respectively, given that the colon volume is about 600 ml.
qPCR was performed on groEL gene (NCBI reference CP003497) to monitor the level of the supplemented Bifidobacterium animalis ssp. lactis DSM 32269 strain within the gut microbiome, as described previously (Junick et al. (2012), Quantification of Human Fecal Bifidobacterium Species by Use of Quantitative Real-Time PCR Analysis Targeting the groEL Gene). Samples were analyzed from the lumen and mucus environment following 48 h of incubation.
Statistical analysis was performed to investigate the average effect of the test products. For this purpose, the average over the six donors was calculated for each endpoint. […]

[1] = control = probiotic only, p<0.05

| Compound | levels of Bifidobacterium animalis ssp. lactis (DSM 32269 specific groEL gene copies) in the lumen environment, as compared to the respective control [1] | levels of Bifidobacterium animalis ssp. lactis in the mucus environment, as compared to the respective control (mucus, vitamin B2 0.01667 g/L co-supplemented with probiotic, control = probiotic only, p<0.05) | copies of the Bifidobacterium animalis ssp. lactis DSM 32269 specific groEL gene in the mucus environment, relative to control (mucus, vitamin B2 0.01667 g/L co-supplemented with probiotic, versus probiotic only) |
| --- | --- | --- | --- |
| C=C1CC[C@H](O)C/C1=C/C=C1\CCC[C@]2(C)[C@@H]([C@H](C)CCCC(C)C)CC[C@@H]12 [vitamin D, cholecalciferol] | significantly increased | – | – |
| Cc1cc2nc3c(=O)[nH]c(=O)nc-3n(C[C@H](O)[C@H](O)[C@H](O)CO)c2cc1C [vitamin B2, riboflavin] | significantly increased | significantly increased | around 6 times |
| O=C1O[C@H]([C@@H](O)CO)C(O)=C1O [vitamin C, L-ascorbic acid] | significantly increased | – | – |
